{"source": "patent US9068987B2", "about": "“Inhibitors of extracellular HSP90” (TRUSTEES OF TUFTS COLLEGE, priority 2003, dated 2015)", "key": {"MMP2 (72 kDa gelatinase)": {"test_system": "MMP2 (72 kDa gelatinase)", "assay": "Zymography of secreted MMP2 after geldanamycin treatment", "assay_type": "cell-based, human", "settings": "HT-1080 cells, 20 μM in serum-free media", "protocol": "HT-1080 cells were treated with 20 μM geldanamycin (GA) in serum-free media and assayed by zymography. MMP2 (72 kDa gelatinase) activity was decreased by ˜35% after GA treatment. Total protein content was visualized by silver staining to ensure equal loading.\nWe then applied a known Hsp90 inhibitor, geldanamycin, to HT-1080 cells to test whether inhibition of Hsp90 reduced MMP2 activity. HT-1080 cells were treated with 20 μM geldanamycin (GA) in serum-free media and secreted MMP2 was assayed by zymography. MMP2 (72 kDa gelatinase) activity was decreased by ˜35%; p<0.01 after GA treatment. Total protein content in conditioned media was visualized by silver staining to ensure equal loading. (See, FIG. 18)."}, "HT-1080 cells [1]": {"test_system": "HT-1080 cells", "assay": "In vitro invasion assay with geldanamycin or GA-beads (Example 8)", "assay_type": "cell-based, human", "settings": "10 μM for 1 hour; eliminated when activated MMP2 (100 ng) was added; data not shown"}, "HT-1080 cells [2]": {"test_system": "HT-1080 cells", "assay": "Invasion assay after 1 hour pre-treatment with novobiocin or nalidixic acid", "assay_type": "cell-based, human", "settings": "cells pre-treated for 1 hour; normalized to no drug control; result in words", "protocol": "HT-1080 cells were pre-treated for 1 hour with novobiocin or nalidixic acid and an invasion assay was performed. […] Viability of cells in this assay was not affected (data not shown). Each data point is normalized to the no drug control and represents the mean.+−.s.e.m. of 2 experiments in triplicate.\n(§1) The ChemoTx® system (Neuro Probe Inc. #106-8, Gaithersburg) was used as a disposable chemotaxis/cell migration chamber in a 96 well format with an 8 μm filter Track etched Polycarbonate pore size, 5.7 mm diameter/site.\n(§2) 13.3 μl of 0.3 mg/ml Matrigel (see Example 8) diluted in cold Dulbeccos PBS (Gibco #14040-091) was applied on the membrane filter of the 96-well plate on row B-H and on row A0.3 μg/site of mouse collagen, type IV (Becton-Dickenson #354233) was diluted in 0.05 M HCL (Sigma #945-50) and was incubated over night at 20° C. in a desiccator for gelation, HT-1080 cells were grown to 70-80% confluence in DMEM supplemented with MEM non-essential amino acids (IX, Gibco #11140050) and Penicillin/Streptomycin (1×, Gibco #15140122) with 10% FBS (Hyclone #SH30070.03). […] After scraping the non-migrating cells from the top of the membrane (except the Standard curve on row A) fluorescence of cells, which had migrated through the membrane (not migrated in case of the Standard curve), was measured on the Tecan Spectrafluor Plus fluorescence plate reader (excitation: 544, emission: 590 nm). […]"}, "[3]": {"test_system": "matrix metalloprotease (MMP)", "assay": "Gelatin zymography of conditioned media (MMP secretion/activity)", "assay_type": "cell-based, human", "settings": "40,000 HT-1080 cells treated 6 hours", "protocol": "40,000 HT-1080 cells were treated for 6 hours with novobiocin or nalidixic acid (as a control) at the given concentrations. […] Two bands (A and B) correspond to unidentified MMPs. (Image inverted for clarity.)\n40,000 HT-1080 cells were treated for 6 hours with novobiocin or nalidixic acid at the given concentrations. The conditioned media from treated cells was separated using a SDS-PAGE gel containing 10 mg/mL gelantin. SDS was removed from the gel using 2.5% Triton-X-100 for 30 minutes at room temperature. Proteins were allowed to digest the gelatine in digestion buffer (0.1M […], pH 8.0, 5 mM CaCl2, 0.04% NaN3) for 48 hours at 37° C. Gels were coomassie-stained and dried for densitometry. Parallel gels were silver stained to show equal loading of protein (data not shown)."}, "HT-1080 cells [4]": {"test_system": "HT-1080 cells", "assay": "Viability of cells in the novobiocin invasion assay", "assay_type": "cell-based, human", "settings": "data not shown", "protocol": "8×10^6 HT-1080 cells/mL were pretreated for 1 hour with novobiocin or nalidixic acid at the concentrations shown and an invasion assay was performed as described in Example 9.1. […] Viability of novobiocin-treated cells in this assay was not affected (data not shown). Each data point is normalized to the no drug control and represents the mean.+−.s.e.m. of 2 experiments in triplicate."}, "HT-1080 cells [5]": {"test_system": "HT-1080 cells", "assay": "Invasion assay with FITC-labelled antibodies and CALI (Example 9.1)", "assay_type": "cell-based, human", "settings": "FITC-labelled antibody, 300 W blue-filtered light for one hour; result in words", "protocol": "Each bar is normalized to dark control and represents the mean.+−.s.e.m of at least 2 experiments in triplicate.\nas §1, §2"}, "HT-1080 cells [6]": {"test_system": "HT-1080 cells", "assay": "FACS analysis for tumor cell specific binding", "parameters": "species or system human", "settings": "10 μg/ml scFv; HT-1080 versus HS-27 control cells", "protocol": "The binding activity of scFv1 to HT-1080 cells (bold line) and to HS-27 cells (thin line) as control is illustrated.\nTo test the ability of purified anti HT-1080 scFv to bind specifically to target cells, we performed a fluorescence-activated cell sorter (FACS) analysis using HT-1080 cells (ATCC CCL-121) and Hs-27 cells (10^6 cells/ml) as control cell line (see Figures). Cells were incubated with 10 μg/ml of pure scFv in CellWash (BD (Becton, Dickinson and Company) #349524) for 20 min at 4° C., washed, and bound scFv's were detected with a secondary FITC labeled anti E-tag mab (Amersham #27-9412-01). Samples were washed and analyzed on a Becton Dickinson FACSscan. […] The thin line represents the control cell line (HS-27) and the bold line the HT-1080 cells. scFv1 specifically stains the tumor cell lines with up to 10 fold higher signal compared to the control cell line."}, "HT-1080 cells [7]": {"test_system": "HT-1080 cells", "assay": "Cell-matrix adhesion assay (Collagen S type I)", "assay_type": "cell-based, human", "settings": "FITC labeled scFv, assay with CALI; data not shown", "protocol": "96-well plates (TPP #9296) (cell culture treated) were coated in Row B-H with collagen S type I 1 μg/well (Roche #10982929) in Dulbeccos PBS (Gibco #14040-091) and in Row A well 10-12 were coated with 2% BSA (Sigma #A-7030)/Dulbeccos PBS at 4° C. over night. The plate was washed with Dulbeccos PBS, blocked Row B-H and Row A well 10-12 with 2% BSA/Dulbeccos PBS for 1 h at 37° C. and washed again with Dulbeccos PBS. […] Fluorescence of cells, which had adhered to the Collagen S type 1 (not adhered in case of the Standard curve), was measured on the Fluostar Galaxy (bMG) microplate reader using excitation/emission wavelengths of 370/460 nm. scFv1 inhibited the adhesion of HT-1080 cells to Collagen S type 1 by 50%. […]"}}, "data": [{"molecule": "COC1=C2C[C@@H](C)C[C@H](OC)[C@H](O)[C@@H](C)/C=C(\\C)[C@H](OC(N)=O)[C@@H](OC)/C=C\\C=C(/C)C(=O)NC(=CC1=O)C2=O", "note": "[geldanamycin]", "values": [{"measurement": "decrease of MMP2 (72 kDa gelatinase) activity", "setting": "MMP2 (72 kDa gelatinase)", "value": "~35", "unit": "%"}, {"measurement": "decrease of invasion of HT-1080 cells", "setting": "HT-1080 cells [1]", "value": "~35", "unit": "%"}]}, {"molecule": "CCn1cc(C(=O)O)c(=O)c2ccc(C)nc21", "note": "[nalidixic acid]", "values": [{"measurement": "effect on invasion of HT-1080 cells", "setting": "HT-1080 cells [2]", "value": "no effect on invasion"}, {"measurement": "reduction of MMP enzyme activity", "setting": "[3]; zymography", "value": "no reduction of enzyme activity"}]}, {"molecule": "CO[C@@H]1[C@@H](OC(N)=O)[C@@H](O)[C@H](Oc2ccc3c(O)c(NC(=O)c4ccc(O)c(CC=C(C)C)c4)c(=O)oc3c2C)OC1(C)C", "note": "[novobiocin]", "values": [{"measurement": "effect on invasion of HT-1080 cells", "setting": "HT-1080 cells [2]", "value": "dose-dependent inhibition of invasion"}, {"measurement": "decrease of MMP activity", "setting": "[3]; highest concentration tested, zymography densitometry", "value": "> 75", "unit": "%"}, {"measurement": "viability of treated cells", "setting": "HT-1080 cells [4]", "value": "not affected"}]}, {"molecule": "JB1: FITC-labeled anti-beta 1 integrin monoclonal antibody (JB1, Chemicon #MAB1963), positive control", "values": [{"measurement": "reduction of invasion after exposure to light", "setting": "HT-1080 cells [5]", "value": "significant (p<0.01, unpaired t-test) reduction of invasion"}]}, {"molecule": "scFv1: single chain Fv antibody fragment from phage library of mice immunized with HT-1080 cells; SEQ ID NO: 1 (protein, listed as Mus sp.) scFv: QVQLKESGAELVKPGASVKLSCTASGFNIKDYYMHWVKQRTEQGLEWIGRIDPEDGETKYAPKFQGKATITADTSSNTAYLQLSSLTSEDTAVYYCARSYDYAMDYWGQGTTVTVSTGGGGSGGGGSGGGGSALQIVLTQSPALMSASPGEKVTMTCSASSSVSYMHWYQQKSGTSPKRWIYDTSKLASGVPARFSGSGSGTSYSLTISSMEAEDAATYYCQQWSSNPLTFGAGTKLELKAAAGAPVPYPDPLEPRGAASAWSHPQFEK", "values": [{"measurement": "FACS signal on tumor cell line compared to control cell line", "setting": "HT-1080 cells [6]", "value": "up to 10 fold"}, {"measurement": "inhibition of adhesion of HT-1080 cells to Collagen S type 1", "setting": "HT-1080 cells [7]", "value": 50, "unit": "%"}]}]}
